Assay results: patent US7271252B2, “Reagents for detecting efavirenz” (Roche Diagnostics Operations, Inc., priority 2003, dated 2007)
Read-outs that look alike come from different tables or passages of the source.

What was measured:
HIV [1] = conditions: cited from earlier work
HIV [2] = conditions: cited from earlier work; remark: listed apart in the source
[3] = cited from earlier work
[4] = tested on: serum antibodies raised against efavirenz-KLH conjugate; test: Competitive inhibition ELISA: binding of mouse serum antibody to N-linked BSA-efavirenz conjugate; parameters: species or system mice; conditions: free drug, serum of one mouse, OD450, FIG. 3
Description: The sera were titered for antibody activity via an antigen specific ELISA. Wells of a styrene 96-well plate were coated with efavirenz N-linked BSA conjugate 5 by placing 50 μL of a 0.1 μg/mL efavirenz-BSA conjugate solution into 0.1 M potassium carbonate, pH 9.2, in the wells and incubating the covered plate at 37° C. for 1 hour. The solution was removed, and the wells were immediately filled with a post coat solution consisting of 1% gelatin hydrolysate, 2% sucrose, 0.1 M Tris buffer, pH 7.4, and 0.15% TWEEN 20 (all reagents from Sigma Chemical Co.), covered and incubated as above. Subsequently, the plates were rinsed once with 2% sucrose and air-dried. Once dry, the plates were sealed into aluminum foil clad plastic bags with a desiccant and stored at 4° C. until used.
Titering consisted of preparing an initial 1:100 dilution of the sera in PBS-T, then seven serial 1:3 dilutions. […] Color that developed was read in a microplate reader equipped with a 450 nm filter. The color intensities were plotted versus the final serum dilutions, and the dilution point at which 50% of the maximum reading was obtained was recorded.
For determining competitive inhibition, plates treated as above were used. […] Serum dilutions of twice the concentration determined above were then prepared, and 25 μL was placed into each well of the column. […]

[5] = taken with other anti-HIV medicines

## O=C1Nc2ccc(Cl)cc2[C@@](C#CC2CC2)(C(F)(F)F)O1 [efavirenz]
HIV [1]; efavirenz
  amount of HIV in the blood (viral load): lower the amount of HIV in the blood
HIV [1]; [5]
  CD4 cell count: increase their CD4 cell count
  patients' viral load: reduce patients' viral load
HIV [2]; patients with low plasma levels of efavirenz, <1000 μg/L, 85 total patients
  virological failure, share of patients: 50%
HIV [2]; patients with plasma levels of efavirenz 1000-4000 μg/L or more than 4000 μg/L
  virological failure, share of patients: 18-22%
[3]; efavirenz levels >4000 μg/L compared with 1000-4000 μg/L
  frequency of CNS toxicity at high versus mid plasma levels: approximately three times more frequent
[3]; human, in vivo
  patients reporting central nervous system (CNS) side effects: 20-40%
  patients who discontinue therapy because of severity or persistence of CNS side effects: about 4%
[4]
  competitive inhibition of binding of serum antibodies to the drug conjugate absorbed to the microplate: confers a competitive inhibition of binding
